Laboratory results taken from US12653809B2, “Urea, amide, and substituted heteroaryl compounds for CBL-B inhibition” (Nurix Therapeutics, Inc., priority 2019, dated 2026).
Like-named read-outs stand apart in the source and are kept apart here.

Biological target: T1, Cbl-b (truncated variant, UniProt number Q13191) (Homo sapiens, UniProt Q13191)
T1 construct: made in house
Assay: Cbl-b activity assay (TR-FRET, interaction of Cbl-b with UbcH5B-Ub)
Format: biochemical
From the text: As described in Biological Example 1A, a Cbl-b activity assay (Cbl-b inhibition assay) used to measure the IC50 values for Cbl-b inhibition uses a mixture comprising candidate compound, Cbl-b (truncated, with an Avitag, and biotinylated), a fluorescently-labeled E2 enzyme UbcH5B labelled with ubiquitin conjugated to BODIPY-fluorescein (UbcH5B-Ub), streptavidin-terbium, and assay buffer. In one embodiment, the Cbl-b activity assay (Cbl-b inhibition assay) used to measure IC50 for inhibition of Cbl-b uses the conditions described in Biological Example 1A with 12 nM Cbl-b. […] In another embodiment, the Cbl-b activity assay (Cbl-b inhibition assay) used to measure IC50 for inhibition of Cbl-b uses the conditions described in Biological Example 1B, with candidate compound, 0.125 nM Cbl-b (truncated, with an avitag, and biotinylated), fluorescently labelled inhibitor probe, and assay buffer. Displacement of the inhibitor probe indicates Cbl-b activity.
Candidate compounds isolated from screening assays were evaluated for their ability to bind and inhibit Cbl-b, an E3 ubiquitin-protein ligase.
The ability of candidate compounds to inhibit Cbl-b activity was measured by monitoring the interaction of Cbl-b with UbcH5B-Ub in the presence of the candidate compound. A truncated variant of Cbl-b (UniProt number Q13191; SEQ ID NO:1) containing an Avitag at its N-terminus was co-expressed with BirA biotin ligase and purified using a standard protocol (see Dou et al., Nature Structural and Molecular Biology 8: 982-987, 2013; Avidity LLC).
Fluorescently labeled UbcH5B-Ub was prepared by conjugating ubiquitin (Ub), labeled at its N-terminus with Bodipy-Fluorescein, to UbcH5B, an E2 enzyme, harboring a cysteine to lysine mutation at position 85. This mutation is similar to a mutation that was previously reported (see Dou et al., Nature Structural and Molecular Biology 8: 982-987, 2013). Cbl-b activity assays were performed in a 384-well plate at room temperature in a 10 μL reaction volume by pre-incubating 12 nM Cbl-b (final concentration) in an assay buffer containing 50 mM HEPES pH 7.0, 100 mM NaCl, 0.01% Triton X-100, 0.01% BSA, and 1 mM DTT in the presence of a candidate compound in 1% DMSO (final concentration, High Conditions) for one hour. After incubation in the presence of the candidate compound, the plate was incubated for an additional 1.5 hours in the presence of 60 nM Src kinase with 1 mM ATP and 5 mM MgCl2 (final concentrations). Alternatively, compounds were tested as described above with assay buffer containing 50 mM NaCl instead of 100 mM NaCl and 30 nM Src kinase instead of 60 nM Src kinase (Low Conditions). Src kinase was prepared as previously described (see Kobashigawa et al., Proc Natl Acad Sci USA, 108: 20579-20584, 2011). […] The plate was incubated for one hour. Following the one hour incubation, the plates were read for TR-FRET signal at 520/620 nm using Envision plate reader (Perkin Elmer). The presence of a FRET signal that indicated Cbl-b was not inhibited by the compound candidate. The absence of a FRET signal indicated Cbl-b was inhibited by the compound candidate and was therefore a Cbl-b inhibitor.
The resulting data for the Cbl-b activity assays were analyzed using standard methods to report the IC50 values of the tested compounds (Tables 3-4). The resulting data for the Cbl-b binding assay was solvent corrected and double-referenced prior to analysis. All data were globally fit to a steady-state affinity and kinetic binding model where applicable. Compounds were ranked into bins A through D as follows for IC50: A indicates <0.1 μM, B indicates 0.1 μM≤IC50<1 μM, C indicates 1 μM≤IC50<5 μM, and D indicates 5 μM≤IC50.

[1] = high conditions: 100 mM NaCl, 60 nM Src kinase, 12 nM Cbl-b, read-out: Cbl-b activity IC50
[2] = Biological Example 1A, low or high conditions not stated, read-out: IC50 values in the Cbl-b inhibition assay of Biological Example 1A
[3] = low conditions: 50 mM NaCl, 30 nM Src kinase, 12 nM Cbl-b, read-out: Cbl-b activity IC50

T1 sequence (Q13191 36-427): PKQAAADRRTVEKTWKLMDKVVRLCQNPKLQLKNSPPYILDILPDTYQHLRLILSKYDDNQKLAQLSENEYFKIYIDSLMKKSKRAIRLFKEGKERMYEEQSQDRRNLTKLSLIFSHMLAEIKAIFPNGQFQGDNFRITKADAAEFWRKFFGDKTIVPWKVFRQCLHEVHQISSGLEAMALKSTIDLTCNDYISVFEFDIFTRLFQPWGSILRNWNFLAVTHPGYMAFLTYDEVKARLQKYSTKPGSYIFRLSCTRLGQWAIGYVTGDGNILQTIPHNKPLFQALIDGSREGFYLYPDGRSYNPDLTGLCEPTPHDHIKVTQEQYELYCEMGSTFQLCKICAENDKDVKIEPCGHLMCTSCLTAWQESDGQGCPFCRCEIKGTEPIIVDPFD

Structure (SMILES) | IC50 [1] [nM] | IC50 [2] [nM] | IC50 [3] [nM]
Cn1cnnc1[C@@H]1C[C@@H]1c1cccc(NC(=O)N2CCOc3cccnc32)c1 [Example 25, N-(3-((1S,2R)-2-(4-methyl-4H-1,2,4-triazol-3-yl)cyclopropyl)phenyl)-2,3-dihydro-4H-pyrido[3,2-b][1,4]oxazine-4-carboxamide] | 100 to 1000 |  | 
Cn1cnnc1CC1(c2cccc(NC(=O)N3CC4(CCNC4)Oc4cccnc43)c2)COC1 (stereo not shown) [Example 26, N-(3-(3-((4-methyl-4H-1,2,4-triazol-3-yl)methyl)oxetan-3-yl)phenyl)spiro[pyrido[3,2-b][1,4]oxazine-2,3′-pyrrolidine]-4(3H)-carboxamide] | < 100 |  | 
Cn1cnnc1CC1(c2cccc(NC(=O)N3CC4(CNC4)Oc4cccnc43)c2)COC1 [Example 27, N-(3-(3-((4-methyl-4H-1,2,4-triazol-3-yl)methyl)oxetan-3-yl)phenyl)spiro[azetidine-3,2′-pyrido[3,2-b][1,4]oxazine]-4′(3′H)-carboxamide] | < 100 |  | 
Cn1cnnc1C(F)(F)[C@](C)(F)c1cccc(NC(=O)N2CC3(CNC3)Oc3cccnc32)c1 [Example 28, (R)—N-(3-(1,1,2-trifluoro-1-(4-methyl-4H-1,2,4-triazol-3-yl)propan-2-yl)phenyl)spiro[azetidine-3,2′-pyrido[3,2-b][1,4]oxazine]-4′(3′H)-carboxamide] | < 100 |  | 
CN1CC2(C1)CN(C(=O)Nc1cccc(C3(Cc4nncn4C)COC3)c1)c1ncccc1O2 [Example 29, 1-methyl-N-(3-(3-((4-methyl-4H-1,2,4-triazol-3-yl)methyl)oxetan-3-yl)phenyl)spiro[azetidine-3,2′-pyrido[3,2-b][1,4]oxazine]-4′(3′H)-carboxamide] | < 100 |  | 
Cn1cnnc1CC1(c2cccc(NC(=O)N3CC4(CCNCC4)c4cccnc43)c2)COC1 [Example 30, N-(3-(3-((4-methyl-4H-1,2,4-triazol-3-yl)methyl)oxetan-3-yl)phenyl)spiro[piperidine-4,3′-pyrrolo[2,3-b]pyridine]-1′(2′H)-carboxamide] | < 100 |  | 
CN1CCC2(CC1)CN(C(=O)Nc1cccc(C3(Cc4nncn4C)COC3)c1)c1ncccc12 [Example 31, 1-methyl-N-(3-(3-((4-methyl-4H-1,2,4-triazol-3-yl)methyl)oxetan-3-yl)phenyl)spiro[piperidine-4,3′-pyrrolo[2,3-b]pyridine]-1′(2′H)-carboxamide] | 100 to 1000 | 100 to 1000 | 
Cn1cnnc1CC1(c2cccc(N3CC4C(C(F)(F)F)CCN4C3=O)c2)COC1 (stereo not shown) [Example 32, 2-(3-(3-((4-methyl-4H-1,2,4-triazol-3-yl)methyl)oxetan-3-yl)phenyl)-7-(trifluoromethyl)hexahydro-3H-pyrrolo[1,2-c]imidazol-3-one] | 1000 to 5000 | 1000 to 5000 | 
CC(Sc1nncn1C)c1cccc(C(=O)Nc2ccccc2)c1 (stereo not shown) [Example 33, 3-(1-((4-methyl-4H-1,2,4-triazol-3-yl)thio)ethyl)-N-phenylbenzamide] |  |  | ≥ 5000
CC(Sc1nncn1C)c1cccc(C(=O)Nc2ccccn2)c1 (stereo not shown) [Example 34, 3-(1-((4-methyl-4H-1,2,4-triazol-3-yl)thio)ethyl)-N-(pyridin-2-yl)benzamide] |  |  | ≥ 5000
C[C@H](Sc1nncn1C)c1cccc(C(=O)Nc2ccc3ccccc3n2)c1 [Example 35, (S)-3-(1-((4-methyl-4H-1,2,4-triazol-3-yl)thio)ethyl)-N-(quinolin-2-yl)benzamide] | ≥ 5000 |  | 
C[C@H](Sc1nncn1C)c1cccc(C(=O)Nc2cc(C(F)(F)F)ccn2)c1 [Example 36, (S)-3-(1-((4-methyl-4H-1,2,4-triazol-3-yl)thio)ethyl)-N-(4-(trifluoromethyl)pyridin-2-yl)benzamide] | 1000 to 5000 | 1000 to 5000 | 
Cn1cnnc1CC1(c2cccc(C(=O)Nc3cccc(C4CC4)n3)c2)COC1 [Example 37, N-(6-cyclopropylpyridin-2-yl)-3-(3-((4-methyl-4H-1,2,4-triazol-3-yl)methyl)oxetan-3-yl)benzamide] | ≥ 5000 | ≥ 5000 | 
Cc1cccc(NC(=O)c2cccc(C3(Cc4nncn4C)COC3)c2)n1 [Example 38, 3-(3-((4-methyl-4H-1,2,4-triazol-3-yl)methyl)oxetan-3-yl)-N-(6-methylpyridin-2-yl)benzamide] | ≥ 5000 | ≥ 5000 | 
Cc1cnnc(NC(=O)Nc2cccc([C@H](C)Sc3nncn3C)c2)c1 [Example 39, (S)-1-(3-(1-((4-methyl-4H-1,2,4-triazol-3-yl)thio)ethyl)phenyl)-3-(5-methylpyridazin-3-yl)urea] | 1000 to 5000 | 1000 to 5000 | 
C[C@H](Sc1nncn1C)c1cccc(NC(=O)N2CC3CCCC3C2)c1 (stereo partly drawn) [Example 40, N-(3-((S)-1-((4-methyl-4H-1,2,4-triazol-3-yl)thio)ethyl)phenyl)hexahydrocyclopenta[c]pyrrole-2(1H)-carboxamide] | 1000 to 5000 | 1000 to 5000 | 
CC1CCN(C(=O)Nc2cccc([C@H](C)Sc3nncn3C)c2)C1 (stereo partly drawn) [Example 41, 3-methyl-N-(3-((S)-1-((4-methyl-4H-1,2,4-triazol-3-yl)thio)ethyl)phenyl)pyrrolidine-1-carboxamide] | ≥ 5000 |  | 
CC1CN(C(=O)Nc2cccc([C@H](C)Sc3nncn3C)c2)CC(C)O1 (stereo partly drawn) [Example 42, 2,6-dimethyl-N-(3-((S)-1-((4-methyl-4H-1,2,4-triazol-3-yl)thio)ethyl)phenyl)morpholine-4-carboxamide] | ≥ 5000 |  | 
C[C@H](Sc1nncn1C)c1cccc(NC(=O)N2CCOC3(CCC3)C2)c1 [Example 43, (S)—N-(3-(1-((4-methyl-4H-1,2,4-triazol-3-yl)thio)ethyl)phenyl)-5-oxa-8-azaspiro[3.5]nonane-8-carboxamide] | ≥ 5000 |  | 
C[C@H](Sc1nncn1C)c1cccc(NC(=O)N2CCn3nccc3C2)c1 [Example 44, (S)—N-(3-(1-((4-methyl-4H-1,2,4-triazol-3-yl)thio)ethyl)phenyl)-6,7-dihydropyrazolo[1,5-a]pyrazine-5(4H)-carboxamide] | ≥ 5000 |  | 
C[C@H](Sc1nncn1C)c1cccc(NC(=O)N2Cc3cccc(O)c3C2)c1 [Example 45, (S)-4-hydroxy-N-(3-(1-((4-methyl-4H-1,2,4-triazol-3-yl)thio)ethyl)phenyl)isoindoline-2-carboxamide] | 100 to 1000 | 100 to 1000 | 
C[C@H](Sc1nncn1C)c1cccc(NC(=O)N2Cc3cnn(C)c3C2)c1 [Example 46, (S)-1-methyl-N-(3-(1-((4-methyl-4H-1,2,4-triazol-3-yl)thio)ethyl)phenyl)-4,6-dihydropyrrolo[3,4-c]pyrazole-5(1H)-carboxamide] | 1000 to 5000 | 1000 to 5000 | 
C[C@H](Sc1nncn1C)c1cccc(NC(=O)N2CCC(C(F)F)C2)c1 (stereo partly drawn) [Example 47, 3-(difluoromethyl)-N-(3-((S)-1-((4-methyl-4H-1,2,4-triazol-3-yl)thio)ethyl)phenyl)pyrrolidine-1-carboxamide] | ≥ 5000 |  | 
C[C@H](Sc1nncn1C)c1cccc(NC(=O)N2CCOC3(CC3)C2)c1 [Example 48, (S)—N-(3-(1-((4-methyl-4H-1,2,4-triazol-3-yl)thio)ethyl)phenyl)-4-oxa-7-azaspiro[2.5]octane-7-carboxamide] | ≥ 5000 |  | 
C[C@H](Sc1nncn1C)c1cccc(NC(=O)N(C)C2CCC2)c1 [Example 49, (S)-1-cyclobutyl-1-methyl-3-(3-(1-((4-methyl-4H-1,2,4-triazol-3-yl)thio)ethyl)phenyl)urea] | ≥ 5000 |  | 
